The target of assay [1] is T1, Hb-AGE (glucose-6-phosphate modified human haemoglobin) (Homo sapiens, UniProt P68871+P69905).
T1 construct: purchased Sigma-Aldrich H7379
Briefly: ELISA binding of tPA to immobilized Hb-AGE, compounds co-incubated with tPA. The following applies: dye included in the tPA solution. The procedure: The small compound library is depicted in Tables 4-5. […] Binding experiments were performed in single wells per compound, in a duplicate experiment. Binding data obtained with this duplicate experiment was averaged.
• 1. […] Coat buffer in control wells. • 2. wash three times with wash buffer • 3. Block all wells with 300 μl 0.5*recommended concentration Roche blocking reagent for 30 minutes at room temperature, with agitation • 4. wash twice • 5. […] Incubate for 30 minutes at room temperature, with agitation • 7. wash five times with TBS/0.1% Tween20 • 8. […] Incubate for 30 minutes at room temperature, with agitation • 10. wash five times with TBS/0.1% Tween20 • 11. Fill wells with 3000× diluted horse raddish peroxidase-labeled polyclonal rabbit anti-mouse antibody (RAMPO, DAKOCytomation) • 12. Incubate for 20 minutes at room temperature, with agitation • 13. Wash five times with TBS/0.1% Tween20 • 14. Wash twice with PBS • 15. Stain with 100 μl TMB, stop with 50 μl 10% H2SO4 • 16. Read absorbance at 450 nm
(In an ELISA, binding on a coated surface is turned into a signal by an enzyme label.)

The test system of assay [2] is amyloid-β and glycated albumin. Briefly: ELISA binding of tPA to immobilized amyloid-β and glycated albumin with Congo red or ThT. The following applies: concentration series of dye. The method, then:
After 5 washes with wash buffer followed by two washes with PBS, binding of antibodies was assessed. […] Triplicates were averaged and standard deviations calculated.

In assay [3] the target is T2, glycated haemoglobin (Hb-AGE) (Homo sapiens, UniProt P68871+P69905).
T2 construct: purchased Sigma-Aldrich H7379
T2 sequence (P69905 2-142 limits assumed): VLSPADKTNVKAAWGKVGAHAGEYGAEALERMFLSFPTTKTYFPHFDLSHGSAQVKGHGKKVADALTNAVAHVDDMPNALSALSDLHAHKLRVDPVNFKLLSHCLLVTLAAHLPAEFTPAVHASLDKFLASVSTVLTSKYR
T2 sequence (P68871 2-147 limits assumed): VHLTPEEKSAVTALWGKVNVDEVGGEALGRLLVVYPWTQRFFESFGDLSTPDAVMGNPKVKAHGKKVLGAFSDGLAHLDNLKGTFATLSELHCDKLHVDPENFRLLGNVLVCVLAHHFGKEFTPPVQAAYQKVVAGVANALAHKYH
Briefly: ELISA binding of IgIV to immobilized Hb-AGE and inhibition studies. The conditions noted are these: 15 μg/ml IgIV, concentration series of competitor. The procedure: Binding of IgIV was determined using an enzyme linked immunosorbent assay (ELISA) set-up. For this purpose 50 μl/well of potential ligands at indicated concentrations or coat buffer only for control and background measurement purposes, were coated overnight at 4° C., with motion, in 50 mM NaHCO3 pH 9.6. Glycated albumin and Hb (BSA-AGE and Hb-AGE), control BSA and control Hb were coated at 5 μg/ml. The BSA and Hb controls were prepared freshly by dissolving lyophilized proteins at 1 mg/ml in PBS upon resuspending by pipetting, followed by a 30′ period at the roller bank, at room temperature. The protein solutions were centrifuged for 10′ at 16,000*g and diluted in coat buffer. Coat controls were performed with anti-glycated protein antibody, anti-albumin antibody, anti-Hb antibody. The alkaline phosphatase-conjugated anti-human Ig antibodies were controlled by coating the IgIV's and overlaying them the secondary antibodies. After coating the plates were washed twice with 50 mM Tris-HCl pH 7.3, 150 mM NaCl, 0.1% v/v Tween20, and blocked with 175 μl/well Blocking reagent (Roche Diagnostics, Almere, The Netherlands; catalogue number 11112589001), for 1 h at room temperature, with motion. Plates were washed twice and incubated in triplicate with indicated antibodies dilution series, plasma dilution series or controls, including binding buffer only, in the absence or presence of putative inhibitors, in binding buffer; PBS/0.1% v/v Tween20, at 50 μl/well, for 1 h at room temperature, with constant motion. After four wash cycles, secondary antibodies were added to the wells, 50 μl/well, for 45′ at room temperature, with motion. RAMPO and SWARPO were used at 2000 times dilution, goat anti-human IgG antibodies were diluted 3000 times, goat anti-human IgM antibodies were diluted 1000 times. After 5 washes with wash buffer followed by two washes with PBS, binding of antibodies was assessed. […] After 5′ absorbance was read at 405 nm. […] After 5′ absorbance was read at 490 nm. […] Triplicates were averaged and standard deviations calculated. […]

A further assay relates to amyloid γ-globulins. Briefly: Inhibition ELISA of monoclonal 7H2H2 binding to immobilized amyloid γ-globulins. On the set-up: species or system human. The method, then:
When binding of a monoclonal antibody to an aggregate with amyloid-like properties was confirmed, the influence of Congo red on this interaction was tested as follows. Amyloid γ-globulins were coated onto a high-binding plate (Greiner Microlon, Bio-One GmbH, Frickenhausen, Germany), blocked with Roche blocking reagent, and overlayed with 10 times diluted hybridoma cell culture medium with a concentration series of Congo red. In addition, the inhibitory effect of compounds with cross-(structure conformation on binding of a monoclonal antibody to immobilized cross-β structure conformation comprising antigens was tested with an ELISA set-up. For this purpose, a limiting amount of antigen, i.e. 0.5 μg ml^−1 amyloid γ-globulins, was immobilized onto a Greiner high-binding plate. It was determined that 80 times diluted hybridoma cell culture supernatant contains an amount of antibody that results in less than maximal signal when used in ELISAs with immobilized proteins with cross-β structure conformation (not shown). Now, concentration series of freshly dissolved-, amyloid-, acid-denatured- and base-denatured γ-globulins at 0.1, 1, 10 and 100 μg ml^−1 was added to the 80 times diluted hybridoma cell culture supernatant, and used to overlay the immobilized amyloid γ-globulins. The amount of bound antibody was determined with RAMPO. […]

The target of the next assay is T3, factor XII (Homo sapiens, UniProt P00748).
T3 sequence (P00748 20-615): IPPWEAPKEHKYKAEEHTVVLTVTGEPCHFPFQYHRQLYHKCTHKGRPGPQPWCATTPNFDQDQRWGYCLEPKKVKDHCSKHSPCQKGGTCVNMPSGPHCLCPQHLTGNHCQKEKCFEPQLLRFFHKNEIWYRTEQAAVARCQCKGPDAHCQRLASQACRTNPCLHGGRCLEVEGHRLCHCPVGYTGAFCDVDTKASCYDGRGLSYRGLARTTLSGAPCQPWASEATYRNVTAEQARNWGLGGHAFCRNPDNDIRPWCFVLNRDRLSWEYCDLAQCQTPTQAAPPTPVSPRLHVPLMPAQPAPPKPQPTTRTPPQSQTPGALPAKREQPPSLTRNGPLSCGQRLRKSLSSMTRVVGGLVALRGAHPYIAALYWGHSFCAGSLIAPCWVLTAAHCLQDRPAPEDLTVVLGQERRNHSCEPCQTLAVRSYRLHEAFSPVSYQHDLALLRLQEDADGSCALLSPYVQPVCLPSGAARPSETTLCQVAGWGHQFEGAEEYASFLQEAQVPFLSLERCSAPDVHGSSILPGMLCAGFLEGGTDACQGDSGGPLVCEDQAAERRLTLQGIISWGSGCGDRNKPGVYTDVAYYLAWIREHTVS
Briefly: ELISA binding of β2GPI to immobilized factor XII. Also noted: human factor XII from plasma (Calbiochem); purchased Calbiochem; host or cells: human plasma. The procedure: (§1) Binding of β2GPI was assessed with monoclonal antibody 2B2^17.

Assay [4] relates to anti-β2GPI auto-antibodies from antiphospholipid syndrome patients. Briefly: Interference with binding of anti-β2GPI autoantibodies to immobilized β2GPI. On the set-up: species or system human. The following applies: concentration series of β2GPI in solution. The procedure:
β2GPI by recombinant β2GPI and not by plasma derived β2GPI When plasma derived β2GPI is coated onto hydrophilic ELISA plates, anti-β2GPI auto-antibodies isolated from plasma of antiphospholipid syndrome autoimmune patients can bind^18. To study the influence of coincubations of the coated β2GPI with the antibodies together with plasma β2GPI or recombinant β2GPI, concentration series of β2GPI were added to the patient antibodies. Subsequently, binding of the antibodies to coated β2GPI was determined.

The target in a further assay is tPA (Homo sapiens, UniProt P00750). Briefly: ELISA binding of β2GPI to immobilized tPA. The method, then:
as §1

Experimental findings from US20080267948A1, “Croos-B Structure Binding Compounds” (priority 2005, published 2008) are described below.

T1 sequence (P69905 2-142 limits assumed): as the sequence (P69905 2-142 limits assumed) above
T1 sequence (P68871 2-147 limits assumed): as the sequence (P68871 2-147 limits assumed) above
Sequence of tPA (P00750 36-562): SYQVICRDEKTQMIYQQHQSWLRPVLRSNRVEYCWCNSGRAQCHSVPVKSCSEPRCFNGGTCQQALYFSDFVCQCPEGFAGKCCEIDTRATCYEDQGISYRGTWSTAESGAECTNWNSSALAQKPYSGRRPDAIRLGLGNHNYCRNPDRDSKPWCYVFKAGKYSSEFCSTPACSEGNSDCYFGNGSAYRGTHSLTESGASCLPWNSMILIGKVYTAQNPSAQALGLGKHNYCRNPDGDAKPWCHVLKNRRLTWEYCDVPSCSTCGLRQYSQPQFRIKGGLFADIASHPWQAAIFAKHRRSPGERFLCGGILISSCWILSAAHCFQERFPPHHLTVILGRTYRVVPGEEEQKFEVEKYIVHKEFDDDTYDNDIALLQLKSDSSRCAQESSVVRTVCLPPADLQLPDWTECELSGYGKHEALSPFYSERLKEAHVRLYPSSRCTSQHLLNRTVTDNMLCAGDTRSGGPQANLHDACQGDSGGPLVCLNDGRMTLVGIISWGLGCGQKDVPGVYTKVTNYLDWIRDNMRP

In the case of `Nc1c(/N=N/c2ccc(-c3ccc(/N=N/c4cc(S(=O)(=O)O)c5ccccc5c4N)cc3)cc2)cc(S(=O)(=O)O)c2ccccc12` [Congo red], the “influence on binding of tPA to immobilized misfolded protein” value in assay [1] is on record as “inhibits binding of tPA”. Besides, the “inhibition of tPA binding to immobilized amyloid-β and glycated albumin” value in assay [2] is reported as “effectively inhibited”. Also, the “influence on binding of IgIV to immobilized Hb-AGE” value in assay [3] was “fully blocks IgIV binding”. Further, the “inhibition of 7H2H2 binding to amyloid γ-globulins” value with amyloid γ-globulins (500 μM Congo red, diluted 7H2H2 cell culture medium) is reported as “approximately 66%”. Also, the “Congo red concentrations that inhibit binding of 7H2H2” value in the assay with amyloid γ-globulins (7H2H2 from 10 times diluted culture medium) is on record as “higher than 5 μM”.

Regarding `Cc1ccc2c(c1)sc(-c1ccc(N(C)C)cc1)[n+]2C.[Cl-]` [Thioflavin T], the “influence on binding of tPA to immobilized misfolded protein” value in assay [1] is given as “promotes binding of tPA”. For the same molecule, the “inhibition of tPA binding to immobilized amyloid-β and glycated albumin” value in assay [2] is “not by ThT”. Besides, in assay [3], the “influence on binding of IgIV to immobilized Hb-AGE” value was “enhance the binding of IgIV”.

B1: plasma β2GPI: β2-glycoprotein I purified from fresh human plasma (protein, UniProt P02749 20-345, looked up)
Beta-2-glycoprotein 1: GRTCPKPDDLPFSTVVPLKTFYEPGEEITYSCKPGYVSRGGMRKFICPLTGLWPINTLKCTPRVCPFAGILENGAVRYTTFEYPNTISFSCNTGFYLNGADSAKCTEEGKWSPELPVCAPIICPPPSIPTFATLRVYKPSAGNNSLYRDTAVFECLPQHAMFGNDTITCTTHGNWTKLPECREVKCPFPSRPDNGFVNYPAKPTLYYKDKATFGCHDGYSLDGPEEIECTKLGNWSAMPSCKASCKVPVKKATVVYQGERVKIQEKFKNGMLHGDKVSFFCKNKEKKCSYTEDAQCIDGTIEVPKCFKEHSSLAFWKTDASDVKPC
B1: the “binding to factor XII” value in the assay with factor XII was “not bind”. Further, in assay [4], the “inhibition of binding of anti-β2GPI auto-antibodies to immobilized β2GPI” value is recorded as “has a minor effect on antibody binding”. In the assay with tPA, the “binding to tPA” value is reported as “not bind”.
